Source: patent US20070081991A1, “Compositions and methods for modulation of immune responses” (Pepgen Corporation, priority 2001, published 2007)
Entries after “also recorded” stand apart in the source; their conditions may differ.

Key:
Assay type in all cases: cell-based, human
[1] = test system: CD94/NKG2A+ NK cell lines Nishi and NKL; experiment: NK cell-mediated cytotoxicity, 2 h 51Cr release, peptide-loaded K562-E*01033 targets; settings: targets incubated overnight at 26° C. with peptide; effectors NKL and Nishi
Procedure: K562-E*01033 cells were incubated with the different peptides at 26° C. for 15-20 hours, and then tested in 2 h 51Cr release assays. In order to ensure that the levels of HLA-E with a protective peptide, and not the HLA-E levels as such, provided the protective capacity we kept the non-protective peptides, but omitted the B7sp, during the assays. (a) Killing of K562-E*01033 cells by NKL (left) or Nishi (right) after incubation with […], 300 mM hsp60sp, or 30 mM B7sp. 50 mM of P18I10 control peptide and hsp60sp was also included during the assays. Data from an E:T ratio of 30:1 is shown. The figure represents the mean of at least three experiments. Error bars indicate standard error of the mean. (b) Killing of K562-E*01033 cells by NKL (left panel) or Nishi (right panel) incubated over night with 30 mM 7sp, 300 mM P18I10 (pCtrl), 300 mM B7 R5V, 300 mM hsp60sp, or 300 mM hsp60 V5R. 50 mM of all peptides, except B7sp, were included during the assay. Peptide concentrations were chosen according to FIG. 5c. The figure represents the mean of at least three experiments. Error bars indicate standard error of the mean. (c) HLA-E cell surface expression by K562-E*01033 after the assay. A cold target preparation was prepared in parallel as in (a) and (b), and then stained with DX17 mAb (anti-HLA class I), followed by RPE-conjugated goat-anti-mouse IgG. One representative example out of more than 5 is shown. Note that, as in (a) and (b), 50 mM of all peptides, except for B7sp, was present during the time of the assay, explaining the lower HLA-E expression with B7sp compared to Hsp60sp, Hsp60 V5R and B7 R5V. (d) Killing of K562-E*01033 cells by Nishi after incubation for 30 min at room temperature with 0.1 mM B7sp and increasing amounts of competing peptides (hsp60sp, hsp60.4, B7 R5V and P18I10). All the peptides were kept throughout the assay
NK cell-mediated cytotoxicity was measured using a 2 hours standard ^51Cr radioisotope release assay. Briefly, target cells were incubated for 15-20 hours at 26° C. with the various peptides at concentrations ranging from 1-300 μM, and then labeled with ^51Cr. Peptides were washed away prior to setting up the assays, except in some experiments where the non-protective hsp60sp, B7 R5V and hsp60 V5R was kept throughout the assay to assure higher levels of HLA-E expression, as compared to targets incubated with the protective B7sp. In mAb blocking experiments, cells were preincubated with mouse serum, or an irrelevant isotype matched antibody to block Fc-receptors. Blocking of either target or effector cells with mAbs was performed at 4° C., and the antibodies were also included during the assays. […]

[2] = test system: NKL and Nishi effector cells; experiment: Killing of K562-E*01033 cells grown at increasing cell density (stress), 2 h 51Cr release; settings: peptide added in the assay; 100 mM B7sp (FIG. 6b legend)
Procedure: (a) Killing of K562-E*01033 cells (grown at increasing cell densities as in FIG. 3b) by NKL in a 2 h 51Cr release assay. (b) Same experimental setting as above, in the presence of 100 mM B7sp. Closed circles-high density; open squares-medium density; closed triangles-low density. (c) HLA-E expression on the K562-E*01033 cells after culture at increasing cell density.
Briefly, cell cultures were set up at the cell concentration of 0.2.10^6 cells/ml at different time points for a period of up to 6 days. At the end point, cell concentration and viability were determined by trypan blue exclusion. The expression of cell-surface HLA class I molecules was assessed by flow cytometry. Cell cultures with viability higher than 90% and at three different densities were selected as targets for cytotoxic assays. HLA-E Tetramer Production
K562-E*01033 cells grown at different densities were tested as targets in a 2 hours chromium release assay with NKL and Nishi as effector cells. […] The data also subbest that HLA-E expression induced by stress is not sufficient to protect from NK cell mediated killing. […] Therefore it is unlikely that the increased killing after cellular stress observed in some of the experiments herein is due to an increased expression of MIC-A or MIC-B. Up-regulation of other activating ligands, e.g., ULBP's, may also be responsible for the increase in killing.

HLA-E = HLA-E stabilization assay (cell surface expression by flow cytometry); settings: K562 cells transfected with HLA-E*01033 or HLA-E*0101; overnight incubation with peptide at 26° C.
Procedure: Synthetic peptides, purchased from Research Genetics, were dissolved in PBS. The peptides used were B7sp ([…]) (SEC ID NO: 3), hsp60sp ([…]) (SEC ID NO: 2), B7 R5V ([…]) (SEC ID NO: 14), hsp60 V5R ([…]) ([…]), and P18I10 ([…]) (SEC ID NO: 113) (all from Research Genetics, Huntsville, Ala.). Cells and their HLA-E transfected derivatives were incubated with synthetic peptides (3-300 μM) at 26° C. for 15-20 hours in serum-free AIM-V medium (GibcoBRL, Paisley Scotland) at a concentration of 1-3.10^6 cells/ml. Cells were then harvested, washed in PBS, stained with mAbs and analyzed by flow cytometry. Cells were subjected to stress by allowing them to grow at increasing cell density.
To test whether the hsp60-derived peptides were able to bind HLA-E, stabilized HLA-E cell surface expression was stabilized with the different synthetic peptides, by overnight incubation at 26° C. For this purpose MHC class I-deficient cell lines such as 721.221 (which lack HLA-A, -B, -C, and -G, but express HLA-E and -F intracellularly), as well as K562 cells transfected with HLA-E*01033 (K562-E*01033) or HLA-E*0101 were employed. The 721.221 cells and HLA-E transfected, but not untransfected, K562 cells express low levels of HLA-E at the cell surface during normal cell growth.

[3] = test system: NK cells of PB and SF mononuclear cells of RA patients; experiment: NK cell cytokine production on contact with peptide stabilized K562 HLA-E*01033 cells (intracellular staining, flow cytometry); settings: K562 HLA-E*01033 stabilized with various doses of peptide; 1:1 cell ratio, 4 hours
Procedure: HLA-E expression was stabilized on K562 cells transfected with HLA-E*01033, by incubation with various doses of HLA-B7 signal sequence derived peptide ([…]) (SEQ ID NO: 3). PB and SF mononuclear cells (MC) of RA patients were then incubated with peptide stabilized K562 cells (1:1 cell ratio) for 4 hours in the presence of GolgiStop™. Cells were surface stained for CD3 and CD56 and thereafter stained intracellularly for IFN-gamma or TNF-alpha. Analysis was performed by flow cytometry.

VMAPRTVLL [B7sp]
protection of K562-E*01033 cells from killing by NK cells [1]: clear protection from killing | rescue of stressed (high density) K562-E*01033 cells from killing [2]: could be rescued from killing by addition of B7sp peptide; also recorded: stressed cells were protected simply by adding the protective B7sp peptide | HLA-E cell surface expression (stabilization) (HLA-E): stabilization of HLA-E | NK cell IFN-gamma production [3]: sufficient to inhibit NK cell IFN-gamma and TNF-alpha cytokine production | NK cell TNF-alpha production [3]: sufficient to inhibit NK cell IFN-gamma and TNF-alpha cytokine production
